Entries after “also recorded” stand apart in the source; their conditions may differ.
Assay: Safety/tolerability in the phase 2 THC challenge study (50 and 100 mg Compound 1)
Conditions: for QTcF, mean increase from baseline: 3 hours post dose, 3.1 ms in placebo group
[1] = 50 mg Compound 1 group (20 per arm)
[2] = 100 mg Compound 1 group (20 per arm)

For `CC(C)(C)NC(=O)N1CC(O[C@H](c2ccc(Cl)cc2)c2ccccc2C(F)(F)F)C1` [Compound 1, (R)—N-(tert-butyl)-3-((4-chlorophenyl)(2-(trifluoromethyl)phenyl)methoxy)azetidine-1-carboxamide], the VAS nausea (10.5 mg THC + 50 or 100 mg Compound 1 vs THC/placebo) was “No significant difference overall between treatment groups”, the “Depressed mood, number of subjects” value [1] was 1 subject and the “Feeling hot, number of subjects” value [1] was 6 subjects. For the same molecule, the “Hyperhidrosis, number of subjects” value [1] was 6 subjects, the “Nausea, number of subjects” value [1] was 13 subjects and the “Vomiting, number of subjects” value [1] was 1 subject. For the same molecule, the “QTcF, mean increase from baseline” value (50 mg Compound 1 group) was 7.9 ms, the “Heart rate, mean increase following dosing (up to)” value (50 mg and 100 mg Compound 1 group, placebo group up to ~6 bpm) was 3-4 bpm and the “Depressed mood, number of subjects” value [2] was 2 subjects. The “Feeling hot, number of subjects” value [2] was 4 subjects, the “Hyperhidrosis, number of subjects” value [2] was 7 subjects and the “Nausea, number of subjects” value [2] was 8 subjects. The “Vomiting, number of subjects” value [2] was 6 subjects, the “QTcF, mean increase from baseline” value (100 mg Compound 1 group) was 9.9 ms and the “Increase in total bilirubin compared to baseline” value (50 and 100 mg Compound 1 groups, 24 h post dose, 1.4 mol/L in placebo group) was 5. For the same molecule, the “Severity of adverse events” value (50 and 100 mg Compound 1 with 10.5 mg THC) was “mild and transient except in the case of one subject in the 50 mg Compound 1 group who experienced moderate nausea and vomiting; also recorded: transient and of mild severity, except one case of vomiting of moderate severity in the 50 mg Compound 1 treatment group”, the “AESI: systolic blood pressure increase compared to baseline” value (one subject, 100 mg Compound 1 group) was > 30 mmHg and the “Overall safety and tolerability” value (single doses of 50 and 100 mg Compound 1) was “safe and well tolerated by most subjects”.

— patent US20260091020A1, “TREATMENT OF ACUTE CANNABINOID OVERDOSE” (Anebulo Pharmaceuticals, Inc., priority 2022, published 2026)
